Test results: the RepoRT retention time repository
Counter-ions that a name gives are not always drawn.

test: RP, Waters CORTECS UPLC C18, 100 × 2.1 mm, 1.6 µm, 40 °C, 0.4 mL/min, estimated dead time 0.55 min; A: water + 0.1% formic acid, pH 3; B: acetonitrile + 0.1% formic acid, pH 3; gradient (min/%B) 0/5 1.12/5 6.41/99.5 10.01/99.5; settings: stereoisomer not certain

Structure (SMILES) | LC retention time
CNC(=N[N+](=O)[O-])NCC1CCOC1 (configuration not stated) [Dinotefuran] | 2.2 min
NCCc1ccc(O)cc1 [TYRAMINE] | 0.755 min
CCNc1nc(NC(C)CC)nc(OC)n1 (configuration not stated) [Secbumeton] | 3.53 min
O=C(Nc1ccccc1-c1ccc(Cl)cc1)c1cccnc1Cl [Boscalid] | 4.99 min
COP(N)(=O)SC (configuration not stated) [Methamidophos] | 0.974 min
CCN(CC)c1nc(C)cc(OP(=S)(OC)OC)n1 [Pirimiphos-methyl] | 5.67 min
CON=C(C(=O)OC)c1ccccc1COc1ccccc1C [Kresoxim-methyl] | 5.42 min
COP(N)(=S)Oc1ccccc1C(=O)OC(C)C (configuration not stated) [Isocarbophos] | 2.32 min
CCCSP(=O)(OCC)Oc1ccc(Br)cc1Cl (configuration not stated) [Profenofos] | 5.85 min
CCCCCC[n+]1cccc(S(=O)(=O)[O-])c1 [C6-APS] | 2.9 min
CCCCCCCCCCCCCCCC[n+]1cccc(S(=O)(=O)[O-])c1 [C16-APS] | 6.07 min
N#CN=C1SCCN1Cc1ccc(Cl)nc1 [Thiacloprid] | 3.6 min
O=C(NC(=O)c1ccccc1Cl)Nc1ccc(OC(F)(F)F)cc1 [Triflumuron] | 5.42 min
CON=C(C1=NOCCO1)c1ccccc1Oc1ncnc(Oc2ccccc2Cl)c1F [Fluoxastrobin] | 5.22 min
CCCSP(=O)(OCC)SCCC [Ethoprop] | 5.02 min
CC(C)(C)N(NC(=O)c1ccc(Cl)cc1)C(=O)c1ccccc1 [Halofenozide] | 4.84 min
CCOP(=S)(OCC)Oc1cnc2ccccc2n1 [Quinalfos] | 5.44 min
COP(=O)(OC)C(O)C(Cl)(Cl)Cl (configuration not stated) [Trichlorfon] | 3 min
CC(C)C(=O)OC(CC(=O)[O-])C[N+](C)(C)C [Isobutyryl-L-carnitine] | 1.79 min
CC(=O)NCCc1c[nH]c2ccc(O)cc12 [N-ACETYLSEROTONIN] | 2.55 min

Structure (SMILES) | LC retention time
CC(C)Oc1cc(-n2nc(C(C)(C)C)oc2=O)c(Cl)cc1Cl [Oxadiazon] | 6.14 min
O=C(NC(=O)c1c(F)cccc1F)Nc1ccc(Oc2ccc(C(F)(F)F)cc2Cl)cc1F [Flufenoxuron] | 6.08 min
O=c1[nH]c(=O)c2[nH]cnc2[nH]1 [XANTHINE] | 0.727 min
CC(COc1ccc(Oc2ccccc2)cc1)Oc1ccccn1 (configuration not stated) [Pyripoxyfen] | 6.07 min
CCSC(=O)N1CCCCCC1 [Molinate] | 5.03 min
O=C(O)c1ccccc1 [BENZOATE] | 2.13 min
CCCCCCCCCC=CC(=O)OC(CC(=O)[O-])C[N+](C)(C)C [trans-2-Dodecenoyl-L-carnitine] | 4.5 min
Fc1ccc(C2(Cn3cncn3)OC2c2ccccc2Cl)cc1 (configuration not stated) [Epoxiconazol] | 4.94 min
CCc1ccc(C(=O)NN(C(=O)c2cc(C)cc(C)c2)C(C)(C)C)cc1 [Tebufenozide] | 5.33 min
O=C(O)c1ccccn1 [PICOLINATE] | 0.719 min
O=[N+]([O-])NC1=NCCN1Cc1ccc(Cl)nc1 [Imidacloprid] | 3.19 min
CCOP(=S)(OCC)ON=C(C#N)c1ccccc1 [Phoxim] | 5.44 min
COC(=O)Nc1cccc(OC(=O)Nc2cccc(C)c2)c1 [Phenmediphan] | 4.71 min
CC1(C)CCC(Cc2ccc(Cl)cc2)C1(O)Cn1cncn1 (configuration not stated) [Metconazole] | 5.24 min
CC12CCC(O)CC1CCC1C2CC(O)C2(C)C(C3=CC(=O)OC3)CCC12O (configuration not stated) [Digoxigenin] | 2.45 min
C=CCNC(=O)c1c([Si](C)(C)C)sc(C)c1C [Silthiofam] | 5.36 min
CCOC(=O)CC(SP(=O)(OC)OC)C(=O)OCC (configuration not stated) [Malaoxon] | 4.05 min
CCCCCCCCSC(=O)Oc1cc(Cl)nnc1-c1ccccc1 [Pyridat] | 6.78 min
CC(C)(C)C(O)C(Oc1ccc(Cl)cc1)n1cncn1 (configuration not stated) [Triadimenol] | 4.74 min
CC1NCCc2cc(O)c(O)cc21 (configuration not stated) [SALSOLINOL] | 0.749 min

Structure (SMILES) | LC retention time
O=c1[nH]c2c(c(=O)n1C1CCCCC1)CCC2 [Lenacil] | 3.96 min
N#CCNC(=O)c1cnccc1C(F)(F)F [Flonicamid] | 2.88 min
CCOC(=O)Cc1c[nH]c2ccccc12 [ETHYL 3-INDOLEACETATE] | 4.49 min
CC(CCC(=O)O)C(=O)O (configuration not stated) [2-METHYLGLUTARATE] | 2.47 min
COP(=O)(OC)OC=C(Cl)Cl [Dichlorvos] | 3.89 min
O=CCc1c[nH]c2ccccc12 [INDOLEACETALDEHYDE] | 2.55 min
OC1COC(O)C(O)C1O (configuration not stated) [ARABINOSE] | 0.798 min
CCN(CC)C(=O)c1cccc(C)c1 [Deet] | 4.37 min
C[S+](CCC(N)C(=O)[O-])CC1OC(n2cnc3c(N)ncnc32)C(O)C1O (configuration not stated) [S-ADENOSYLMETHIONINE] | 5.56 min
CC1C(c2ccc(Cl)cc2)SC(=O)N1C(=O)NC1CCCCC1 (configuration not stated) [Hexythiazox] | 6.21 min
CC(C)(C)c1ccc(CSc2cnn(C(C)(C)C)c(=O)c2Cl)cc1 [Pyridaben] | 6.5 min
COC=C(C(=O)OC)c1ccccc1COc1cccc(C(F)(F)F)n1 [Picoxystrobin] | 5.45 min
Cc1cnc2c(C(=O)O)c(Cl)ccc2c1 [Quinmerac] | 3.17 min
Cc1ccc(NC(=O)N(C)C)cc1Cl [Chlorotoluron] | 4.15 min
O=C(Nc1ccccc1)N(Cc1ccc(Cl)cc1)C1CCCC1 [Pencycuron] | 5.69 min
CC1(C)CON(Cc2ccccc2Cl)C1=O [Clomazone] | 4.64 min
Cc1cccc2sc3nncn3c12 [Tricyclazol] | 3.38 min
O=C(O)Cc1c[nH]c2ccccc12 [3-Indoleacetic acid] | 3.4 min

Further lines, results first:

LC retention time | Structure (SMILES)
2.34 min | CSCCC(NC(C)=O)C(=O)O (configuration not stated) [N-ACETYLMETHIONINE]
3.58 min | O=C(O)C=Cc1c[nH]c2ccccc12 [3-Indoleacrylic acid]
1.66 min | O=C(O)c1ccc(O)c(O)c1 [3,4-DIHYDROXYBENZOATE]
3.88 min | C=CCOC(Cn1ccnc1)c1ccc(Cl)cc1Cl (configuration not stated) [Imazalil]
4.16 min | CC(CCC(=O)NCCS(=O)(=O)O)C1CCC2C3CCC4CC(O)CCC4(C)C3CC(O)C12C (configuration not stated) [Taurodeoxycholic acid]
6.4 min | CCCCCCC=CC#CCCCCCCCC(=O)O [Ximeninic Acid]
0.76 min | Nc1nc2c(ncn2C2OC(CO)C(O)C2O)c(=O)[nH]1 (configuration not stated) [GUANOSINE]
0.871 min | CCC(=O)OC(CC(=O)[O-])C[N+](C)(C)C [Propionyl-L-carnitine]
5.92 min | Cc1c(C)c2c(c(C)c1O)CCC(C)(CCCC(C)CCCC(C)CCCC(C)C)O2 (stereo not drawn) [ALPHA-TOCOPHEROL]
3.31 min | COc1ccc2[nH]cc(CCNC(C)=O)c2c1 [MELATONIN]
2.38 min | Nc1nc2ncc(CNc3ccc(C(=O)NC(CCC(=O)O)C(=O)O)cc3)nc2c(=O)[nH]1 (configuration not stated) [FOLATE]
0.76 min | Nc1nc2nc[nH]c2c(=O)[nH]1 [GUANINE]
3.71 min | NC(Cc1cc(I)c(Oc2ccc(O)c(I)c2)c(I)c1)C(=O)O (configuration not stated) [LIOTHYRONINE]
3.35 min | N[C@@H](Cc1cc(I)c(Oc2ccc(O)cc2)c(I)c1)C(=O)O [3,5-DIIODO-L-THYRONINE]
5.78 min | CCCCCCCCCCCCCCC[n+]1cccc(S(=O)(=O)[O-])c1 [C15-APS]
5.19 min | CCCCCCCCCCCCC[n+]1cccc(S(=O)(=O)[O-])c1 [C13-APS]
3.67 min | CCCCCCCC[n+]1cccc(S(=O)(=O)[O-])c1 [C8-APS]

LC retention time | Structure (SMILES)
3.28 min | O=Cc1c[nH]c2ccccc12 [Indole-3-carboxaldehyde]
5.2 min | CC(=O)OCC(=O)C1CCC2C3CCC4=CC(=O)CCC4(C)C3CCC12C (configuration not stated) [DEOXYCORTICOSTERONE ACETATE]
2.43 min | CC=C(C)C(=O)OC(CC(=O)[O-])C[N+](C)(C)C [Tigloyl-L-carnitine]
4.2 min | CCCCCCCCCC(O)CC(=O)OC(CC(=O)[O-])C[N+](C)(C)C [[(3R)-3-Hydroxydodecanoyl]-L-carnitine]
2.47 min | COC(=O)CCCC(=O)O [MONOMETHYLGLUTARATE]
4.21 min | CCCCCCCCCC(=O)OC(CC(=O)[O-])C[N+](C)(C)C [Decanoyl-L-carnitine]
0.782 min | O=C(O)c1ccnc2ccccc12 [4-QUINOLINECARBOXYLATE]
5.49 min | CCCCCCCCCCCCCC[n+]1cccc(S(=O)(=O)[O-])c1 [C14-APS]
4.14 min | COC(=O)Cc1c[nH]c2ccccc12 [INDOLE-3-METHYL ACETATE]
3.67 min | CC12CCC(=O)C=C1CCC1C2C(O)CC2(C)C1CCC2(O)C(=O)CO (configuration not stated) [CORTISOL]
5.17 min | O=C(O)CCc1ccccc1O [3-(2-HYDROXYPHENYL)PROPANOATE]
3.22 min | Cc1ccc(N=c2sccn2C)c(C)c1 [Cymiazol hydrochloride]
4.05 min | CC12CCC(=O)C=C1CCC1C2CCC2(C)C1CCC2(O)C(=O)CO (configuration not stated) [CORTEXOLONE]
5.25 min | CC(CCC(=O)NCC(=O)O)C1CCC2C3CCC4CC(O)CCC4(C)C3CCC12C (configuration not stated) [Glycolithocholic acid]
2.29 min | O=C(O)C(=O)Cc1ccccc1 [Phenylpyruvic acid]
6.05 min | C[C@H](CCC(=O)O)[C@H]1CC[C@H]2[C@@H]3CC[C@@H]4CC(=O)CC[C@]4(C)[C@H]3CC[C@]12C [3-Oxo-5β-cholanoic Acid]
3.13 min | O=C(O)C(O)Cc1c[nH]c2ccccc12 (racemic) [DL-Indole-3-lactic acid]
